# Where two headings read alike, the source gives them in different places.
# Key:
# Test in all cases: DSF 100 kinase selectivity screen;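 also: compound tested at 20 µM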
# Type in all cases: binding
# [1] = target: T1, ~100 representative kinases (Homo sapiens, UniProt O14733); settings: protein MAP2K7; average of three replicates
# T1 construct: Recombinant protein kinase domains with a concentration of 2 μM
# T1 sequence (O14733 1-419): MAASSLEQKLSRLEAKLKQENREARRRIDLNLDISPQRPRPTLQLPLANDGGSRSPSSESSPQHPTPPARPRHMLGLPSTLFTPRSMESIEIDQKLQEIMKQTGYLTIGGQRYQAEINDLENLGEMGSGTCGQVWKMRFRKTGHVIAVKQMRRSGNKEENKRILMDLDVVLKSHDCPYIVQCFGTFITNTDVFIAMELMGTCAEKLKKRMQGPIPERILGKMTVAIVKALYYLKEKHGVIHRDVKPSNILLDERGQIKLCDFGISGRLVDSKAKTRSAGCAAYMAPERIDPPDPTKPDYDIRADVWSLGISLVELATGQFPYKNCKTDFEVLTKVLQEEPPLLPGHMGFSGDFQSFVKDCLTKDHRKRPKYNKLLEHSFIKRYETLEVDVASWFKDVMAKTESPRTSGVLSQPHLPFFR
# Summary of the method: (§1)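 Each kinase domain, at 2 μM, is mixed with 20 μM test compound and SYPRO Orange in Hepes (20 mM, pH 7.5) with 500 mM NaCl. Temperature is then raised at 3°C/min and fluorescence-monitored unfolding yields the melting temperature change, ΔTm in degrees Celsius.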
# [2] = target: T2, ~100 representative kinases (Homo sapiens, UniProt P53779); settings: protein MAPK10; average of three replicates
# T2 construct: Recombinant protein kinase domains with a concentration of 2 μM
# T2 sequence (P53779 whole entry, the tested form may be a part): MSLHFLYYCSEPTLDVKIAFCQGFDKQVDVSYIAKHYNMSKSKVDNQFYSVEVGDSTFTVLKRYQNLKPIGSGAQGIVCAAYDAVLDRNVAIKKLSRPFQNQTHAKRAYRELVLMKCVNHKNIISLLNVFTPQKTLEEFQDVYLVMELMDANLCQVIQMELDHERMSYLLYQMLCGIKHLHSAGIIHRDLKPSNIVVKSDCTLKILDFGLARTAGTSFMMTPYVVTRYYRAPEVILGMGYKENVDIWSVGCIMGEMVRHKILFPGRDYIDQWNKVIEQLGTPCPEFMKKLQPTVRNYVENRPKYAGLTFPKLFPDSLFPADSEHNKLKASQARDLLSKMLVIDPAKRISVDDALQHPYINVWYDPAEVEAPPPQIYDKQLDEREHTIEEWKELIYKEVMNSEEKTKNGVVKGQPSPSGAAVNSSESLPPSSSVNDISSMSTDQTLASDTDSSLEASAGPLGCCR
# Summary of the method: as §1
# [3] = target: T3, ~100 representative kinases (Homo sapiens, UniProt P48730); settings: Protein CSNK1D; average of three replicates
# T3 construct: Recombinant protein kinase domains with a concentration of 2 μM
# T3 sequence (P48730 whole entry, the tested form may be a part): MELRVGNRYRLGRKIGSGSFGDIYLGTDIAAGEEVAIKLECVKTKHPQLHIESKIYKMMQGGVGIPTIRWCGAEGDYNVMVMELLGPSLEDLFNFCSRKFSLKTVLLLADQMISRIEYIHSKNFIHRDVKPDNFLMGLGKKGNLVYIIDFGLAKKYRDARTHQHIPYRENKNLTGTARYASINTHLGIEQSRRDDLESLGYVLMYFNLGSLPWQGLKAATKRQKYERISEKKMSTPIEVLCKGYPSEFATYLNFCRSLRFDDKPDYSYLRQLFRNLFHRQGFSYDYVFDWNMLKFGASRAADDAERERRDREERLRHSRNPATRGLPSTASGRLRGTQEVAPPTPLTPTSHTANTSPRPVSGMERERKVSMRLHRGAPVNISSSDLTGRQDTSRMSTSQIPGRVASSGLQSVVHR
# Summary of the method: as §1
# [4] = target: T4, ~100 representative kinases (Homo sapiens, UniProt P15056)
# T4 construct: Recombinant protein kinase domains with a concentration of 2 μM
# T4 sequence (P15056 whole entry, the tested form may be a part): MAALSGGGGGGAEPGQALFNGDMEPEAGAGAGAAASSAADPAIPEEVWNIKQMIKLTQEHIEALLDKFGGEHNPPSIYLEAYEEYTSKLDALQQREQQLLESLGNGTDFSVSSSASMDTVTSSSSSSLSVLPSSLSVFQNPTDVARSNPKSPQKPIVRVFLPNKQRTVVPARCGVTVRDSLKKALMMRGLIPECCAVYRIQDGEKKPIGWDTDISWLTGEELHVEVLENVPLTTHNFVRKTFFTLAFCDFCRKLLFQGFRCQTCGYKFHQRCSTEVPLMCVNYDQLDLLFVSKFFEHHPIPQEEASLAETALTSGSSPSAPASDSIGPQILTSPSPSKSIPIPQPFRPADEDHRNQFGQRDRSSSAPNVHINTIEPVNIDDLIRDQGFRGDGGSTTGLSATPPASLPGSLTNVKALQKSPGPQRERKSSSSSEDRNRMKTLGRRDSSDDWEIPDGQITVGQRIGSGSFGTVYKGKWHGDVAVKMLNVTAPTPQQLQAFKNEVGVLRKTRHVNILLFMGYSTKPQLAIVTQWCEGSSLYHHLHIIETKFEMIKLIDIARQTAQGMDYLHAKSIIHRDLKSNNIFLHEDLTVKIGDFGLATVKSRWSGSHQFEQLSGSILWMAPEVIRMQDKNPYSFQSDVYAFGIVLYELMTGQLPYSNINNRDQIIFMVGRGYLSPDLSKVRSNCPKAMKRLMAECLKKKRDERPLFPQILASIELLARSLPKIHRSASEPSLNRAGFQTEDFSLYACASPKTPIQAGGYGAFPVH
# Summary of the method: as §1
# [5] = target: T5, ~100 representative kinases (Homo sapiens, UniProt Q9UPE1); settings: Protein SRPK3; DSF; average of three replicates
# T5 construct: Recombinant protein kinase domains with a concentration of 2 μM
# T5 sequence (Q9UPE1 whole entry, the tested form may be a part): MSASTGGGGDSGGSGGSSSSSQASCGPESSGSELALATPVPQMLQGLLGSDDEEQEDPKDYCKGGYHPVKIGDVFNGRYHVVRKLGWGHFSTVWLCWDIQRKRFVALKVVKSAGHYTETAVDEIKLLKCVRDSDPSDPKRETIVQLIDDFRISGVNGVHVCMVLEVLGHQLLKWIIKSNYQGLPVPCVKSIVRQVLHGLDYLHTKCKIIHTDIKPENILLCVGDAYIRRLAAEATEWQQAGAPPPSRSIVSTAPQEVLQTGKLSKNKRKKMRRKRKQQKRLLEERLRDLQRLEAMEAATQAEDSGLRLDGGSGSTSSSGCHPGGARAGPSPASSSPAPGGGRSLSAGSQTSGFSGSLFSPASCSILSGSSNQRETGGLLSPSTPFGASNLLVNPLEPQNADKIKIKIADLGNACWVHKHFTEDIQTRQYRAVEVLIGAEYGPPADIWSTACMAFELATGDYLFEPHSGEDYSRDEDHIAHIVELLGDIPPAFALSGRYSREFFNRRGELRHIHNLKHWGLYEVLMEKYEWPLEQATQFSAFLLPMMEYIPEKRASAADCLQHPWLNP
# Summary of the method: as §1
# [6] = target: T6, ~100 representative kinases (Homo sapiens, UniProt P49759); settings: Protein CLK1; average of three replicates
# T6 construct: Recombinant protein kinase domains with a concentration of 2 μM
# T6 sequence (P49759 whole entry, the tested form may be a part): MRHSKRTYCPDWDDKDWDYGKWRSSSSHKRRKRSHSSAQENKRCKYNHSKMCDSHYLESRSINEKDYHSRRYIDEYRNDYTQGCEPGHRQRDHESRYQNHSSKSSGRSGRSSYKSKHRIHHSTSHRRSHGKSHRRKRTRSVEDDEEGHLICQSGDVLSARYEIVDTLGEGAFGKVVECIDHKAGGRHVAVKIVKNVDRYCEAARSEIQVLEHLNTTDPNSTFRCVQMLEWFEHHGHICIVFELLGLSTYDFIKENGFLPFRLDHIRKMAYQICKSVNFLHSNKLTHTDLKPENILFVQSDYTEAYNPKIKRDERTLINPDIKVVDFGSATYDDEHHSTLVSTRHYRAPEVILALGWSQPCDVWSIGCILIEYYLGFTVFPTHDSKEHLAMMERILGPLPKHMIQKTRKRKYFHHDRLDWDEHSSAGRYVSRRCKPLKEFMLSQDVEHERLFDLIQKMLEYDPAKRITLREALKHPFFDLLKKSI
# Summary of the method: as §1
# [7] = target: T7, ~100 representative kinases (Homo sapiens, UniProt Q8IU85); settings: Protein CAMK1D; average of three replicates
# T7 construct: Recombinant protein kinase domains with a concentration of 2 μM
# T7 sequence (Q8IU85 whole entry, the tested form may be a part): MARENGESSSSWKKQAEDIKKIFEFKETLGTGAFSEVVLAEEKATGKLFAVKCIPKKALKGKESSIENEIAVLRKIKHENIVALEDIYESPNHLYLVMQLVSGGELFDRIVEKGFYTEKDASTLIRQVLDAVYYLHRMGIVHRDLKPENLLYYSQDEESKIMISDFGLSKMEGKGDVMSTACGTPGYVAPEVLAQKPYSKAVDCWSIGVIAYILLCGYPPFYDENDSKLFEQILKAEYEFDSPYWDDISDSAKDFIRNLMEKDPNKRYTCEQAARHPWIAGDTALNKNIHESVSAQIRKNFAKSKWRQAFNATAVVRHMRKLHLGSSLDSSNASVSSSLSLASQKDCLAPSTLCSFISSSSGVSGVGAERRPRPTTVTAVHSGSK
# Summary of the method: as §1
# [8] = target: T8, ~100 representative kinases (Homo sapiens, UniProt Q99683); settings: protein MAP3K5; average of three replicates
# T8 construct: Recombinant protein kinase domains with a concentration of 2 μM
# T8 sequence (Q99683 1-1374): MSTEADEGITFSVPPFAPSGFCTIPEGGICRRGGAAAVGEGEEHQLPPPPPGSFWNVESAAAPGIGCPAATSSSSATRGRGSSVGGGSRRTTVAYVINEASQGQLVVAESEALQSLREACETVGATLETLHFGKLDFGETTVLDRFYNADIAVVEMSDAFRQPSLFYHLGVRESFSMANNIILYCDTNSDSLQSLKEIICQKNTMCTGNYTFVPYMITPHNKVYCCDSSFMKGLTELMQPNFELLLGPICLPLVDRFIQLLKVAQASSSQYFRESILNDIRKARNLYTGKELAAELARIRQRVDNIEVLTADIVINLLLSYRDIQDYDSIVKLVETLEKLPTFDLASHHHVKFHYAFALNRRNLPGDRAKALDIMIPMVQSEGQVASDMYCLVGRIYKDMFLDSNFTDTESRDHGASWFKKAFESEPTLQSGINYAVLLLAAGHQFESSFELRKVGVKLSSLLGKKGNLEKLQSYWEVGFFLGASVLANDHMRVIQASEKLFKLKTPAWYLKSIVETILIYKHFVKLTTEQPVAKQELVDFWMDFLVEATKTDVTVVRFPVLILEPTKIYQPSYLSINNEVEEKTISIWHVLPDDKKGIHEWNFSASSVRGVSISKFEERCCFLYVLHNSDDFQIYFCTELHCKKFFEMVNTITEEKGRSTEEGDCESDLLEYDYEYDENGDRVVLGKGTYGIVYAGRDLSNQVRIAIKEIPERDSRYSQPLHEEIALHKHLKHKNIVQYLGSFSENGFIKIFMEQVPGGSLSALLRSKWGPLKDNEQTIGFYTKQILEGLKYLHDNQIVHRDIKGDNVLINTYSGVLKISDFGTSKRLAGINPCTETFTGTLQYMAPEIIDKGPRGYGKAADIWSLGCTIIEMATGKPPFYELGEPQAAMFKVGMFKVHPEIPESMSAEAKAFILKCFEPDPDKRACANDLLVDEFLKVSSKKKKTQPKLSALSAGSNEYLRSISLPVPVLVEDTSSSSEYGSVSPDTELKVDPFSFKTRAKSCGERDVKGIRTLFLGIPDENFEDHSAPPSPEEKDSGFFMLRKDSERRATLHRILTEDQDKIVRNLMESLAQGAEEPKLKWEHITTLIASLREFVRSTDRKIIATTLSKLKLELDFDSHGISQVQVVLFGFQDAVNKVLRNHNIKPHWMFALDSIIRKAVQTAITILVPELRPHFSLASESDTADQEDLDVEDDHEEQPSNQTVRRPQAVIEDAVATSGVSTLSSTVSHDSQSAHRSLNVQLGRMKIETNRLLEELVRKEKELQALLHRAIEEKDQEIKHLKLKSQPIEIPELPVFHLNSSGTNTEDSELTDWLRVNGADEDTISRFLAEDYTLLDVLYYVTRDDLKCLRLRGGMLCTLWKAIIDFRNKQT
# Summary of the method: as §1
# [9] = target: T9, ~100 representative kinases (Homo sapiens, UniProt P68400); settings: Protein CK2A1; average of three replicates
# T9 construct: Recombinant protein kinase domains with a concentration of 2 μM
# T9 sequence (P68400 whole entry, the tested form may be a part): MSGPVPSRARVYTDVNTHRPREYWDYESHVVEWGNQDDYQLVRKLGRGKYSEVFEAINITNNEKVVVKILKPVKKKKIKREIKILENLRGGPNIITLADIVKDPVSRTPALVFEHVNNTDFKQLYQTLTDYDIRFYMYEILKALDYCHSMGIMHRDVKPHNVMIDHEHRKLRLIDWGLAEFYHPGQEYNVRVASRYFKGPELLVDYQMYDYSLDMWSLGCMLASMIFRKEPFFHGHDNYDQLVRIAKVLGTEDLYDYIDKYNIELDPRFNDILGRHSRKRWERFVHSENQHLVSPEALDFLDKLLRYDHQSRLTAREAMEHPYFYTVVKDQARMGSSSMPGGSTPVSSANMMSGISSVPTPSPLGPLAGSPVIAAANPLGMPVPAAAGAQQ
# Summary of the method: as §1
# [10] = Protein BRAF, average of three replicates
Compound,dTm [1] [K],dTm [2] [K],dTm [3] [K],"dTm [4, 10] [K]",dTm [5] [K],dTm [6] [K],dTm [7] [K],dTm [8] [K],dTm [9] [K],dTm [4] [K]
"Cc1ccc(C(=O)Nc2ccc(CN3CCN(C)CC3)c(C(F)(F)F)c2)cc1C#Cc1cnc2cccnn12 [Ponatinib, reference compound]",–,–,–,36.88,–,–,–,–,–,–
Cc1cc(NC(=O)C2(C(=O)Nc3ccc(F)cc3)CC2)cc(-c2c[nH]c3ncnc(N4CCOCC4)c23)c1 [Compound 6],1.34,2.20,1.10,12.36,4.54,4.67,1.65,4.24,0.12,–
Cn1cc(-c2c[nH]c3ncnc(N4CCOCC4)c23)cc1C#N [PFE-360],0.37,-1.02,0.63,2.10,–,7.59,-1.69,15.45,0.25,–
"COc1cc2c(Oc3ccc(NC(=O)C4(C(=O)Nc5ccc(F)cc5)CC4)cc3F)ccnc2cc1OCCCN1CCOCC1 [Foretinib, reference compound]",–,1.66,0.91,6.96,7.41,6.72,0.45,2.33,0.00,–
"Cc1ccc(C(=O)Nc2ccc(CN3CCN(C)CC3)c(C(F)(F)F)c2)cc1C#Cc1cnc2[nH]ncc2c1 [GZD-824, reference compound]",4.88,2.46,1.29,–,–,7.80,-0.60,5.05,-1.14,38.00
CCNc1nc(Nc2cc(F)c(C(=O)N3CCOCC3)cc2OC)ncc1C(F)(F)F [GNE-7915],-0.22,0.33,1.81,1.48,–,5.28,-0.16,3.14,1.87,–
CN[C@@H]1C[C@H]2O[C@@](C)([C@@H]1OC)n1c3ccccc3c3c4c(c5c6ccccc6n2c5c31)C(=O)NC4 [Staurosporine],7.05,–,2.05,–,4.52,–,–,–,–,–
C[C@@H]1CN(c2cc(-c3n[nH]c4ccc(OC5(C)CC5)cc34)ncn2)C[C@H](C)O1 [MLi2],-0.41,0.0276,0.66,0.50,–,3.00,2.16,3.65,0.17,–
Cc1ccc(C(=O)Nc2ccc(CN3CCN(C)CC3)c(C(F)(F)F)c2)cc1C#Cc1c[nH]c2ncnc(N3CCOCC3)c12 [Compound 1],4.67,4.55,0.0454,35.22,–,8.76,0.56,6.86,2.53,–
"CNC(=O)c1cc(Oc2ccc(NC(=O)Nc3cc(C(C)(C)C)nn3-c3ccc4ncccc4c3)c(F)c2)ccn1 [Rebastinib, reference compound]",2.63,3.02,-1.01,–,9.62,15.99,1.21,1.38,–,–

# Continued, in another order:
dTm [1] [K],dTm [2] [K],dTm [3] [K],"dTm [4, 10] [K]",dTm [5] [K],dTm [6] [K],dTm [7] [K],dTm [8] [K],dTm [9] [K],Compound,dTm [4] [K]
3.10,-0.75,1.02,9.00,4.09,7.21,-1.25,2.39,-0.33,O=C(Nc1cccc(-c2c[nH]c3ncnc(N4CCOCC4)c23)c1)C1(C(=O)Nc2ccc(F)cc2F)CC1 [Compound 23],–
5.31,0.56,3.49,13.62,10.86,11.22,0.0569,4.77,-0.56,Cc1cc(NC(=O)C2(C(=O)Nc3cccc(-c4c[nH]c5ncnc(N6CCOCC6)c45)c3)CC2)ccc1F [Compound 20],–
2.84,0.82,-0.88,4.38,3.85,10.57,-0.11,1.23,0.26,CC(=O)N1CCN(c2nc(Cl)nc3[nH]cc(-c4cccc(NC(=O)Nc5cc(C(C)(C)C)nn5-c5ccc(C)cc5)c4)c23)CC1 [Compound 31],–
4.30,2.45,1.61,6.85,4.78,9.52,-1.41,2.42,0.00,O=C(Nc1ccccc1)C1(C(=O)Nc2cccc(-c3c[nH]c4ncnc(N5CCOCC5)c34)c2)CC1 [Compound 12],–
4.93,4.40,0.43,13.24,6.39,8.69,3.06,5.22,0.10,O=C(Nc1cccc(-c2c[nH]c3ncnc(N4CCOCC4)c23)c1)C1(C(=O)Nc2ccc(F)c(Br)c2)CC1 [Compound 19],–
2.39,-0.06,-2.91,18.85,3.14,11.59,-0.23,1.60,0.59,Cc1ccc(-n2nc(C(C)(C)C)cc2NC(=O)Nc2cccc(-c3c[nH]c4nc(Cl)nc(N5CCOCC5)c34)c2)cc1 [Compound 30],–
3.13,4.27,1.22,32.83,9.26,19.59,2.13,3.36,0.00,CC(C)(C)c1cc(NC(=O)Nc2cccc(-c3c[nH]c4ncnc(N5CCOCC5)c34)c2)n(-c2ccc3ncccc3c2)n1 [Compound 28],–
